Molecular target: BRD4 (Homo sapiens, UniProt O60885)
Assay: Time resolved fluorescence resonance energy transfer (TR-FRET) binding assay, bromodomain BRD4
Settings: one of the FRET assays described; read-out: FRET BRD4 IC50

Structure (SMILES)	IC50
COc1ncc(S(C)(=O)=O)c2c1c1ncc(-c3c(C)nnn3C)cc1n2C(c1ccccc1)C1CCC(F)(F)CC1 (single isomer, unassigned) [Example 91, 8-[(4,4-Difluorocyclohexyl)(phenyl)methyl]-5-(dimethyl-1H-1,2,3-triazol-5-yl)-10-methanesulfonyl-13-methoxy-3,8,12-triazatricyclo[7.4.0.0^2,^7]trideca-1(13),2(7),3,5,9,11-hexaene]	< 1.5 µM
Cc1nnn(C)c1-c1cnc2c3ccc(N4CC(C)S(=O)(=O)C(C)C4)nc3n([C@H](c3ccccc3)C3CCOCC3)c2c1 (single isomer, unassigned) [Example 190]	< 0.001 µM
Cc1nnn(C)c1-c1cnc2c3ccc(N4CC(C)S(=O)(=O)C(C)C4)nc3n([C@H](c3ccccc3)C3CCOCC3)c2c1 (single isomer, unassigned) [Example 191]	< 0.001 µM
[2H]C([2H])([2H])c1nnn(C)c1-c1cnc2c3c(OC)ncc(C(C)(C)O)c3n(C(c3ccccc3)C3CCC(F)(F)CC3)c2c1 (single isomer, unassigned) [Example 281, 2-{8-[(4,4-Difluorocyclohexyl)(phenyl)methyl]-13-methoxy-5-[4-(^2H3)methyl-1-methyl-1H-1,2,3-triazol-5-yl]-3,8,12-triazatricyclo[7.4.0.0^2,^7]trideca-1(9),2,4,6,10,12-hexaen-10-yl}propan-2-ol]	< 0.01 µM
[2H]C([2H])([2H])c1nnn(C)c1-c1cnc2c3c(OC)ncc(C(C)(C)O)c3n(C(c3ccccc3)C3CCC(F)(F)CC3)c2c1 (single isomer, unassigned) [Example 282, 2-{8-[(4,4-Difluorocyclohexyl)(phenyl)methyl]-13-methoxy-5-[4-(^2H3)methyl-1-methyl-1H-1,2,3-triazol-5-yl]-3,8,12-triazatricyclo[7.4.0.0^2,^7]trideca-1(9),2,4,6,10,12-hexaen-10-yl}propan-2-ol]	< 0.001 µM
Cc1nnn(C)c1-c1cnc2c3cnc(Cl)cc3n(C(c3ncccc3F)C3CCOCC3)c2c1 (single isomer, unassigned) [Example 317]	< 1.5 µM
Cc1nnn(C)c1-c1cnc2c3cnc(Cl)cc3n(C(c3ncccc3F)C3CCOCC3)c2c1 (single isomer, unassigned) [Example 318]	< 0.01 µM
[2H]C([2H])([2H])c1nnn(C)c1-c1cnc2c3cnc(Cl)cc3n(C(c3ncccc3F)C3CCOCC3)c2c1 (single isomer, unassigned) [Example 320]	< 1.5 µM
[2H]C([2H])([2H])c1nnn(C)c1-c1cnc2c3cnc(Cl)cc3n(C(c3ncccc3F)C3CCOCC3)c2c1 (single isomer, unassigned) [Example 321]	< 0.01 µM
Cc1noc(C)c1-c1cnc2c3cnc(Cl)cc3n(C(c3ccc(Cl)cn3)C3CCOCC3)c2c1 (single isomer, unassigned) [Example 327]	< 1.5 µM
Cc1noc(C)c1-c1cnc2c3cnc(Cl)cc3n(C(c3ccc(Cl)cn3)C3CCOCC3)c2c1 (single isomer, unassigned) [Example 328]	< 0.01 µM
[2H]C([2H])([2H])c1nnn(C)c1-c1cc2c(cn1)c1ncc(C(C)(C)O)cc1n2C(c1ncccc1F)C1CCOCC1 (single isomer, unassigned) [Example 366]	< 0.01 µM
[2H]C([2H])([2H])c1nnn(C)c1-c1cc2c(cn1)c1ncc(C(C)(C)O)cc1n2C(c1ncccc1F)C1CCOCC1 (single isomer, unassigned) [Example 367]	< 0.01 µM
CCCC(c1ncccc1F)n1c2cc(-c3c(C)nnn3C)ncc2c2ncc(C(C)(C)O)cc21 (single isomer, unassigned) [Example 370]	< 0.01 µM
CCCC(c1ncccc1F)n1c2cc(-c3c(C)nnn3C)ncc2c2ncc(C(C)(C)O)cc21 (single isomer, unassigned) [Example 371]	< 0.01 µM
Cc1cccnc1C(C1CCOCC1)n1c2cc(-c3c(C)nnn3C)ncc2c2ncc(C(C)(C)O)cc21 (single isomer, unassigned) [Example 373]	< 1.5 µM
Cc1cccnc1C(C1CCOCC1)n1c2cc(-c3c(C)nnn3C)ncc2c2ncc(C(C)(C)O)cc21 (single isomer, unassigned) [Example 374]	< 0.01 µM

Structure (SMILES)	IC50
CCCC(c1ccc(F)cn1)n1c2cc(-c3c(C)nnn3C)ncc2c2ncc(C(C)(C)O)cc21 (single isomer, unassigned) [Example 375]	< 1.5 µM
CCCC(c1ccc(F)cn1)n1c2cc(-c3c(C)nnn3C)ncc2c2ncc(C(C)(C)O)cc21 (single isomer, unassigned) [Example 376]	< 0.01 µM
Cc1nnn(C)c1-c1cnc2c3ccc(N4CCS(=O)(=O)C(C)C4)nc3n([C@H](c3ccccc3)C3CCOCC3)c2c1 (single isomer, unassigned; diastereomer b) [Example 218]	< 0.001 µM
[2H]C([2H])([2H])c1nnn(C)c1-c1cnc2c3c(OC)ncc(S(C)(=O)=O)c3n(C(c3ccc(F)cc3)C3CCC(F)(F)CC3)c2c1 (stereo in doubt) [Example 96, 8-[(R)-(4,4-Difluorocyclohexyl)(4-fluorophenyl)methyl]-10-methanesulfonyl-13-methoxy-5-[4-(^2H3)methyl-1-methyl-1H-1,2,3-triazol-5-yl]-3,8,12-triazatricyclo[7.4.0.0^2,^7]trideca-1(13),2(7),3,5,9,11-hexaene]	< 1.5 µM
[2H]C([2H])([2H])c1nnn(C)c1-c1cnc2c3cnc(Cl)cc3n([C@H](c3ncccc3F)C3CCOCC3)c2c1 (stereo in doubt) [Example 314, 11-Chloro-8-[(3-fluoropyridin-2-yl)(oxan-4-yl)methyl]-5-[4-(^2H3)methyl-1-methyl-1H-1,2,3-triazol-5-yl]-3,8,12-triazatricyclo[7.4.0.0^2,^7]trideca-1(9),2(7),3,5,10,12-hexaene]	< 0.01 µM
Cc1nnn(C)c1-c1cnc2c3c(F)nccc3n([C@H](c3ccccc3)C3CCOCC3)c2c1 [Example 3, 5-(Dimethyl-1H-1,2,3-triazol-5-yl)-13-fluoro-8-[(S)-oxan-4-yl(phenyl)methyl]-3,8,12-triazatricyclo[7.4.0.0^2,^7]trideca-1(13),2(7),3,5,9,11-hexaene]	< 0.01 µM
Cc1nnn(C)c1-c1cnc2c3cc(Cl)ncc3n([C@H](c3ccccc3F)C3CCOCC3)c2c1 [Example 4, 12-Chloro-5-(dimethyl-1H-1,2,3-triazol-5-yl)-8-[(S)-(2-fluorophenyl)(oxan-4-yl)methyl]-3,8,11-triazatricyclo[7.4.0.0^2,^7]trideca-1(13),2(7),3,5,9,11-hexaene]	< 0.01 µM
Cc1nnn(C)c1-c1cnc2c3ccnc(Cl)c3n([C@H](c3ccccc3F)C3CCOCC3)c2c1 [Example 5, 10-Chloro-5-(dimethyl-1H-1,2,3-triazol-5-yl)-8-[(S)-(2-fluorophenyl)(oxan-4-yl)methyl]-3,8,11-triazatricyclo[7.4.0.0^2,^7]trideca-1(13),2(7),3,5,9,11-hexaene]	< 0.01 µM
Cc1nnn(C)c1-c1cnc2c3ccnc(Cl)c3n([C@H](c3ccccc3)C3CCOCC3)c2c1 [Example 6, 10-Chloro-5-(dimethyl-1H-1,2,3-triazol-5-yl)-8-[(S)-oxan-4-yl(phenyl)methyl]-3,8,11-triazatricyclo[7.4.0.0^2,^7]trideca-1(13),2(7),3,5,9,11-hexaene]	< 0.001 µM
Cc1nnn(C)c1-c1cnc2c3ccnc(N4CCOCC4)c3n([C@H](c3ccccc3)C3CCOCC3)c2c1 [Example 7, 5-(Dimethyl-1H-1,2,3-triazol-5-yl)-10-(morpholin-4-yl)-8-[(S)-oxan-4-yl(phenyl)methyl]-3,8,11-triazatricyclo[7.4.0.0^2,^7]trideca-1(13),2(7),3,5,9,11-hexaene]	< 0.01 µM
Cc1nnn(C)c1-c1cnc2c3ccnc(N4CCN(C)CC4)c3n([C@H](c3ccccc3)C3CCOCC3)c2c1 [Example 8, 5-(Dimethyl-1H-1,2,3-triazol-5-yl)-10-(4-methylpiperazin-1-yl)-8-[(S)-oxan-4-yl(phenyl)methyl]-3,8,11-triazatricyclo[7.4.0.0^2,^7]trideca-1(13),2(7),3,5,9,11-hexaene]	< 0.01 µM
COCCNc1nccc2c3ncc(-c4c(C)nnn4C)cc3n([C@H](c3ccccc3)C3CCOCC3)c12 [Example 9, 5-(Dimethyl-1H-1,2,3-triazol-5-yl)-N-(2-methoxyethyl)-8-[(S)-oxan-4-yl(phenyl)methyl]-3,8,11-triazatricyclo[7.4.0.0^2,^7]trideca-1(13),2(7),3,5,9,11-hexaen-10-amine]	< 0.01 µM
Cc1nnn(C)c1-c1cnc2c3ccnc(OCCN(C)C)c3n([C@H](c3ccccc3)C3CCOCC3)c2c1 [Example 10, (2-{[5-(Dimethyl-1H-1,2,3-triazol-5-yl)-8-[(S)-oxan-4-yl(phenyl)methyl]-3,8,11-triazatricyclo[7.4.0.0^2,^7]trideca-1(13),2(7),3,5,9,11-hexaen-10-yl]oxy}ethyl)dimethylamine]	< 0.01 µM
Cc1nnn(C)c1-c1cnc2c3ccnc(NCCO)c3n([C@H](c3ccccc3)C3CCOCC3)c2c1 [Example 11, 2-{[5-(Dimethyl-1H-1,2,3-triazol-5-yl)-8-[(S)-oxan-4-yl(phenyl)methyl]-3,8,11-triazatricyclo[7.4.0.0^2,^7]trideca-1(13),2(7),3,5,9,11-hexaen-10-yl]amino}ethan-1-ol]	< 0.01 µM
COc1ccc2c3ncc(-c4c(C)nnn4C)cc3n([C@H](c3ccccc3)C3CCOCC3)c2n1 [Example 12, 5-(Dimethyl-1H-1,2,3-triazol-5-yl)-11-methoxy-8-[(S)-oxan-4-yl(phenyl)methyl]-3,8,10-triazatricyclo[7.4.0.0^2,^7]trideca-1(13),2(7),3,5,9,11-hexaene]	< 0.01 µM
COc1nccc2c3ncc(-c4c(C)nnn4C)cc3n([C@H](c3ccccc3)C3CCOCC3)c12 [Example 13, 5-(Dimethyl-1H-1,2,3-triazol-5-yl)-10-methoxy-8-[(S)-oxan-4-yl(phenyl)methyl]-3,8,11-triazatricyclo[7.4.0.0^2,^7]trideca-1(13),2(7),3,5,9,11-hexaene]	< 0.001 µM
Cc1nnn(C)c1-c1cnc2c3ccc(Cl)nc3n([C@H](c3ccccc3)C3CCOCC3)c2c1 [Example 14, 11-Chloro-5-(dimethyl-1H-1,2,3-triazol-5-yl)-8-[(S)-oxan-4-yl(phenyl)methyl]-3,8,10-triazatricyclo[7.4.0.0^2,^7]trideca-1(9),2(7),3,5,10,12-hexaene]	< 0.01 µM

— US9725449B2, “Tricyclic compounds as anticancer agents” (BRISTOL-MYERS SQUIBB COMPANY, priority 2015, dated 2017)
